Source: patent publication US4897417A, “Prodrugs of 3,4-hydroxy benzoyloxypropanolamines” (E. I. Du Pont de Nemours & Co., priority 1988, dated 1990)

Legend:
[1] = tested on: isoproterenol-induced increase in heart rate; assay: Effect on systemic beta-blockade upon topical administration (isoproterenol-induced heart rate in anesthetized dogs); format: in vivo, Mongrel dogs; details: for HR, ISO only: 0 min (dose), isoproterenol only, before treatment; for HR, ISO only / HR, baseline: 0.125% group; for HR: 0.125% topical, isoproterenol infusion 0.5 μg/kg/min; for HR, baseline: -30 min, before isoproterenol and before treatment; for systemic beta-blockade of isoproterenol-induced increase in heart rate / effect on the heart rate responses to isoproterenol: in words, 50 μL, 0.125% solution; for effect on the heart rate responses to isoproterenol: topical; for drop in heart rate: within 60 minutes, 0.125% concentration
Method: Mongrel dogs were anesthetized and control readings were made at -45 and -30 minutes. Following the -30 minute reading, an infusion of isoproterenol (0.5 μg/kg/min) was begun and maintained during the course of the experiment. Two readings of pretreatment isoproterenol responses were made at […] and at zero minutes. At zero minutes, a 50 μL sample of test compound was administered topically. This dose was repeated at 50, 60 and 90 minutes and the animal was monitored for heart rate for 180 minutes following the first application. Heart rate was obtained directly from the strip chart recording.

[2] = tested on: isoproterenol-induced increase in heart rate; assay: as above; format: in vivo, Mongrel dogs; details: 120 min (dose) post-treatment, 0.125% topical, isoproterenol infusion 0.5 μg/kg/min
[3] = Ocular bioavailability in rabbits (aqueous humor levels after topical corneal dosing); format: in vivo, New Zealand White Rabbits; details: for area under the AH concentration time curve (AUC0-240'): 50 μL of 0.25% Timolol or 0.5% compound 8d; for absorption in the eye: topical
Method: The ocular bioavailability of Timolol and compound 8d (dipivaloyl ester prodrug of compound 9d) was evaluated in New Zealand White Rabbits. Fifty μL of a solution of 0.25% Timolol or 0.5% compound 8d (both in the same vehicle) were administered onto the cornea of both eyes of 48 rabbits (24 rabbits/compound). At 5, 15, 30, 60, 120, 180, 240, and 360 minutes after dosing, 3 rabbits (6 eyes) per compound were killed. Aqueous humor (AH), was quickly removed from the eyes, weighed and processed to determine tissue levels of Timolol or compound 8d and compound 9d.

SMILES | HR, ISO only [1] | HR ([1]; 15 min post-treatment) | HR ([1]; 30 min post-treatment) | HR ([1]; 45 min post-treatment) | HR ([1]; 60 min (dose) post-treatment) | HR ([1]; 90 min post-treatment) | HR ([1]; 150 min post-treatment) | HR, baseline [1] | systemic beta-blockade of isoproterenol-induced increase in heart rate [1] | effect on the heart rate responses to isoproterenol [1] | drop in heart rate [1] | HR [2] | area under the AH concentration time curve (AUC0-240') ([3]; aqueous humor, rabbits) | AUC of compound 8d in AH relative to AUC of Timolol in AH ([3]; aqueous humor, rabbits, after 0.25% Timolol or 0.5% compound 8d) | absorption in the eye ([3]; in words, rabbits) | delivery of compound 9d to the internal structures of the eye ([3]; in words, rabbits, topical compound 8d) | stability in rabbit ocular tissues ([3]; in words)
CC(=O)NCC(C)(C)NCC(O)COC(=O)c1cc(OC(=O)C(C)(C)C)c(OC(=O)C(C)(C)C)cc1C (stereo not drawn) [Compound 8a] | 215 bpm | 214 bpm | 213 bpm | 210 bpm | 208 bpm | 207 bpm | 202 bpm | 152 bpm | no systemic beta-blockade | no effect | 2 bpm | 203 bpm | – | – | – | – | –
Cc1cc(OC(=O)C(C)(C)C)c(OC(=O)C(C)(C)C)cc1C(=O)OCC(O)CNC(C)(C)CNC(N)=O (stereo not drawn) [Compound 8c] | 212 bpm | 212 bpm | 210 bpm | 210 bpm | 210 bpm | 210 bpm | 212 bpm | 158 bpm | no systemic beta-blockade | no effect | 7 bpm | 210 bpm | – | – | – | – | –
Cc1cc(OC(=O)C(C)(C)C)c(OC(=O)C(C)(C)C)cc1C(=O)OCC(O)CNC(C)(C)CNC(=O)C1CCOC1 (stereo not drawn) [Compound 8d] | – | – | – | – | – | – | – | – | – | – | – | – | 27,377 ng/100 μL/min | 3 × | rapidly absorbed in the eye | effectively delivers compound 9d to the internal structures of the eye | –
Cc1cc(O)c(O)cc1C(=O)OCC(O)CNC(C)(C)CNC(=O)C1CCOC1 (stereo not drawn) [Compound 9d] | – | – | – | – | – | – | – | – | – | – | – | – | – | – | – | – | stable in rabbit ocular tissues
CC(C)(C)NC[C@H](O)COc1nsnc1N1CCOCC1 [Timolol, reference compound] | 213 bpm | 198 bpm | 185 bpm | 174 bpm | 174 bpm | 179 bpm | 192 bpm | 142 bpm | – | significant inhibitory effect | 39 bpm | 183 bpm | 9,022 ng/100 μL/min | – | rapidly absorbed in the eye | – | –
